The compounds below were run on HCV genotype-1a variant with glutamine 30 changed to glutamate in the NS5A protein. Conditions: test compound titrated with BMS-790052 fixed at 200 nM; genotype 1a Q30E replicon.
Format: cell-based
Method in brief: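 Synergy was assessed by combining several fixed amounts of an NS5A-targeting compound with a titration of the second compound of interest.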

SMILES | Fold-Synergistic 1a (Q30E) [fold]
CC(C)(F)C(NC(=O)C1CCC(F)(F)CC1)c1nc(-c2ccc(-c3ccc(-c4c[nH]c(C(NC(=O)C5CCC(F)(F)CC5)C(C)(C)F)n4)cc3)cc2)c[nH]1 (single isomer, unassigned) [Compound N-106B] | >100
CC(C)[C@H](NC(=O)c1ccc(Cl)s1)c1ncc(-c2ccc(-c3ccc(-c4cnc([C@@H](NC(=O)c5ccc(Cl)s5)C(C)C)[nH]4)cc3)cc2)[nH]1 [Compound P-91] | >100
CC(C)(C)[C@H](NC(=O)C(=O)O)c1nc(-c2ccc(-c3ccc(-c4c[nH]c([C@@H](NC(=O)C(=O)O)C(C)(C)C)n4)cc3)cc2)c[nH]1 [Compound W-44] | >10
CC(C)(C)C(=O)NC1(C(=O)N[C@H](c2nc(-c3ccc(-c4ccc(-c5c[nH]c([C@@H](NC(=O)C6(NC(=O)C(C)(C)C)CCCCC6)C(C)(C)C)n5)cc4)cc3)c[nH]2)C(C)(C)C)CCCCC1 [Compound W-262] | >100
CC(C)[C@H](NC(=O)C(C)(C)Oc1ccc(Cl)cc1)c1ncc(-c2ccc(-c3ccc(-c4cnc([C@@H](NC(=O)C(C)(C)Oc5ccc(Cl)cc5)C(C)C)[nH]4)cc3)cc2)[nH]1 [Compound P-65] | >100
C#CCOC(=O)N[C@@H](C(=O)N[C@H](c1ncc(-c2ccc(-c3ccc(-c4cnc([C@@H](NC(=O)[C@H](NC(=O)OCC#C)C(C)C)C(C)C)[nH]4)cc3)cc2)[nH]1)C(C)C)C(C)C [Compound S-252] | >100
CC(C)(C)C(=O)N[C@H](c1ncc(-c2ccc3cc(-c4ccc5nc([C@@H](NC(=O)C(C)(C)C)C(C)(C)C)[nH]c5c4)ccc3c2)[nH]1)C(C)(C)C [Compound B54] | >100
CC(C)(C)C(NC(=O)C1COC(=O)N1)c1nc(-c2ccc(-c3ccc(-c4c[nH]c(C(NC(=O)C5COC(=O)N5)C(C)(C)C)n4)cc3)cc2)c[nH]1.O=C(O)C(F)(F)F.O=C(O)C(F)(F)F [Compound L-9] | >10
CC(C)[C@H](NC(=O)C(C)(C)N1C[C@@H](C)O[C@@H](C)C1)c1nc(-c2ccc(-c3ccc(-c4c[nH]c([C@@H](NC(=O)C(C)(C)N5C[C@@H](C)O[C@@H](C)C5)C(C)C)n4)cc3)cc2)c[nH]1 [Compound W-161] | >100
CC(C)[C@H](NC(=O)C1CC(F)(F)C1)c1ncc(-c2ccc(-c3ccc(-c4cnc([C@@H](NC(=O)C5CC(F)(F)C5)C(C)C)[nH]4)cc3)cc2)[nH]1 [Compound P-83] | >100
CC(C)(C)[C@H](NC(=O)C1CC2(C1)CC(F)(F)C2)c1nc(-c2ccc(-c3ccc(-c4c[nH]c([C@@H](NC(=O)C5CC6(C5)CC(F)(F)C6)C(C)(C)C)n4)cc3)cc2)c[nH]1 [Compound P-46] | >100
CC(O)C1(C(=O)N[C@H](c2ncc(-c3ccc(-c4ccc(-c5cnc([C@@H](NC(=O)C6(C(C)O)CC6)C(C)(C)C)[nH]5)cc4)cc3)[nH]2)C(C)(C)C)CC1 (single isomer, unassigned) [Compound B73] | >100
CN(C)S(=O)(=O)N[C@H](c1nc(-c2ccc(-c3ccc(-c4c[nH]c([C@@H](NS(=O)(=O)N(C)C)C(C)(C)C)n4)cc3)cc2)c[nH]1)C(C)(C)C [Compound L-116] | >100
CC(C)(OCC(F)F)C(=O)N[C@H](c1nc(-c2ccc(-c3ccc(-c4c[nH]c([C@@H](NC(=O)C(C)(C)OCC(F)F)C(C)(C)C)n4)cc3)cc2)c[nH]1)C(C)(C)C [Compound N-116] | <10
O=C(c1cccc2ccccc12)N1CCC[C@H]1c1ncc(-c2ccc(-c3ccc(-c4cnc([C@@H]5CCCN5C(=O)c5cccc6ccccc56)[nH]4)cc3)cc2)[nH]1 [Compound S-119] | >10
CC(C)[C@H](NC(=O)C(C)(C)C)c1nc(-c2ccc(-c3ccc(-c4c[nH]c([C@@H](NC(=O)C(C)(C)C)C(C)C)n4)c(F)c3)cc2)c[nH]1.O=C(O)C(F)(F)F [Compound N-89] | >100

Source: US20160158200A1, “Combinations of Hepatitis C Virus Inhibitors” (priority 2013, published 2016)
